{
  "source": "patent US20250179126A1",
  "about": "“A NOVEL PEPTIDE FROM A PHOTOSYNTHETIC BACERIUM DIRECTLY TARGETS MITOCHONDRIA TO TRIGGER APOPTOSIS IN ADVANCED PROSTATE CANCER CELLS” (priority 2022, published 2025)",
  "key": {"Human cancer cells": {"tested_on": "Human cancer cells", "assay": "MTT cell viability assay, human cancer cell panel", "type": "cell-based", "settings": "5-100 μM, 24 hr, 37° C.", "experimental": "(§1) Cell viability was detected by MTT assays, and the control (PBS-treated) cells were considered 100% viable. Mean±SE (N=3). *P<0.05, **P<0.01, ***P<0.001.\nCytotoxicity assay: The MTT assay was performed as we previously described (Cha et al., Cancer Research 2020, 80: 1615-1623)."}, "[1]": {"tested_on": "DU145 prostate cancer cells", "assay": "MTT cell viability assay, DU145 prostate cancer cells", "type": "cell-based, human", "settings": "DU145 (p53-mutant, AR−), 24-72 hr; paclitaxel 1 nM", "description": "as §1\n(§2) Cell lines and culture: Human cancer and noncancer (immortalized and nonimmortalized) cell lines were obtained from the American Type Culture Collection [prostate cancer (PC3, DU145 and LNCaP), normal prostate (CRL11611), breast cancer (MCF-7), ovarian cancer (SK-OV3 adenocarcinoma), lung cancer (A549)]. MDD2 breast cancer cells (p53 dominant-negative) were provided courtesy of Dr Andrei V. Gudkov, Roswell Park Cancer Institute. 20 All cell lines were cultured in MEM-E (Invitrogen) supplemented with 10% heat-inactivated fetal bovine serum (Atlanta Biological, Inc.), 100 units/mL penicillin, and 100 μg/mL streptomycin at 37° C. in 5% CO2."}, "[2]": {"tested_on": "LNCaP prostate cancer cells", "assay": "MTT cell viability assay, LNCaP prostate cancer cells", "type": "cell-based, human", "settings": "LNCaP (p53 wild-type, AR+), 24-72 hr; paclitaxel 1 nM", "experimental": "as §2"}, "[3]": {"tested_on": "PC3 prostate cancer cells", "assay": "MTT cell viability assay, PC3 prostate cancer cells", "type": "cell-based, human", "settings": "PC3 (p53-null, AR−), 24-72 hr; paclitaxel 1 nM", "experimental": "as §2"}, "PC3 cells [4]": {"tested_on": "PC3 cells", "assay": "Cellular membrane toxicity, LDH leakage assay", "type": "cell-based, human", "settings": "PC3, 0.2-200 μM, 37° C.", "experimental": "FIG. 6A-6B: Cellular membrane toxicity assays. […] Cells treated with lysis buffer were defined as having 100% LDH release. Mean±SE (N=3).\nCellular membrane toxicity: LDH assays were performed as we previously described (Cha et al., Cancer Research 2020, 80: 1615-1623)."}, "LNCaP cells": {"tested_on": "LNCaP cells", "assay": "Annexin-V apoptosis assay by flow cytometry, LNCaP", "type": "cell-based, human", "settings": "48 hr, Ptxl 1 nM, p28 50 μM, aurA/aurB 0.5-50 μM", "experimental": "(§3) FIG. 7A-7D: Determination of apoptotic cell death. Prostate cancer cell lines (7A: LNCaP, 7B: DU145 and 7C: PC3) and normal prostate CRL11611 cells (7D) were exposed to the indicated agents for 48 hr and stained using apoptosis assay kits according to the manufacturer's instructions. The samples were analyzed by flow cytometry. Mean±SE (N=3).\n(§4) After 48 hr, annexin-V apoptosis assays (Thermo Fisher Scientific) were conducted to detect apoptotic cells. At least 10,000 cells in each case were analyzed by FACS (RRC, UIC)."}, "DU145 cells": {"tested_on": "DU145 cells", "assay": "Annexin-V apoptosis assay by flow cytometry, DU145", "type": "cell-based, human", "settings": "DU145, 48 hr; Ptxl 1 nM, p28 50 μM, aurA/aurB 0.5-50 μM", "experimental": "as §3, §4"}, "PC3 cells [5]": {"tested_on": "PC3 cells", "assay": "Annexin-V apoptosis assay by flow cytometry, PC3", "type": "cell-based, human", "settings": "PC3, 48 hr; Ptxl 1 nM, p28 50 μM, aurA/aurB 0.5-50 μM", "experimental": "as §3, §4"}, "[6]": {"tested_on": "normal prostate CRL11611 cells", "assay": "Annexin-V apoptosis assay by flow cytometry, normal prostate CRL11611", "type": "cell-based, human", "settings": "normal CRL11611, 48 hr; Ptxl 1 nM, p28 50 μM, aurA/aurB 0.5-50 μM", "experimental": "as §3, §4"}, "[7]": {"target": "T1, mitochondrial ATP synthase gamma subunit (ATP5C) (Homo sapiens, UniProt P36542)", "T1 construct": "endogenous in cells; host or cells: PC3 human prostate cancer cells, mitochondrial fraction (detergent extract)", "T1 sequence (P36542 26-298)": "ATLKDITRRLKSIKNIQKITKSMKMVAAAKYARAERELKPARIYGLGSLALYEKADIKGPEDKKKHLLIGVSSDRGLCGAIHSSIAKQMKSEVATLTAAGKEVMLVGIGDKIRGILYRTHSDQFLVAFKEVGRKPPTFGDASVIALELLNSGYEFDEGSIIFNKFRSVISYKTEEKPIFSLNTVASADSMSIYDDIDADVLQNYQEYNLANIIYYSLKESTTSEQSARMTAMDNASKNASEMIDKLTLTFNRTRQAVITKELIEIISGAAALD", "assay": "Pull-down assay with biotin-labeled peptides and protein identification", "type": "binding", "settings": "mitochondrial fraction of PC3 cells, biotin-labeled peptide, 16 hr at 4° C.", "description": "8A, TEM image of PC3 cells. Representative TEM micrograph of aurB-treated cells depicting the intraritochondrial localization of aurB-GNRs (arrowheads) and mitochondria](Mt) swelling. Scale bar: 600 nm. Mt: mitochondria. […] Coomassie-stained SDS-PAGE gels are shown (8B). The protein band at ˜35 kDa (arrowhead) was identified as ATP5C using mass spectrometry analysis. The identified fragments are indicated in green underlined sequence (SEQ ID NO: 4)(8C).\nPull-down assay and protein identification: PC3 cells were washed twice with PBS, and the mitochondrial fraction was prepared with a Qproteome mitochondria isolation kit (Qiagen). […] The peptides were then preincubated with streptavidin-agarose beads for 4 hr. After washing, the beads were boiled, and the released proteins were subjected to SDS-PAGE analysis. A protein band of ˜35 kDa was subjected to microcapillary LC/MS/MS for protein identification (Harvard Medical School, Taplin Mass Spectrometry Facility). For IB, proteins were transferred to nitrocellulose membranes. After blocking with 5% BSA in TBST, the membranes were incubated with anti-ATP5C antibody at 1:25,000 in 5% BSA/TBST (Abcam) for 16 hr at 4° C. The secondary antibody was applied (anti-goat IgG-HRP; Santa Cruz Biotechnology). The signal was detected using enhanced chemiluminescence (ECL)."}, "PC3 cells [8]": {"tested_on": "PC3 cells", "assay": "JC-1 mitochondrial membrane potential assay", "type": "cell-based, human", "settings": "PC3, 1, 10 and 100 μM", "experimental": "Cells were stained by using JC-1 Mitochondrial Membrane Potential Assay Kits according to the manufacturer's instructions to measure mitochondrial membrane potential, and fluorescence was measured by flow cytometry. 9B, Caspase-3 is involved in aurB-induced apoptosis. […] The inhibitor was used at the indicated concentrations. Mean±SE (N=3).\nJC-1 dye (Invitrogen) was used to determine mitochondrial membrane potential. […] After washing with PBS, trypsinized PC3 cells were incubated with JC-1 dye and analyzed by FACS."}, "[9]": {"assay": "Water solubility of peptides"}},
  "data": [
    {"substance": "LVK GGE AEA ANI ANA GLS AGP AAN YLPA [aurA]", "values": [
      {"measurement": "anti-proliferative effect (MTT cell viability)", "setting": "Human cancer cells", "value": "little effect at any concentration tested"},
      {"measurement": "cytotoxic effect (MTT cell viability)", "setting": "[1]", "value": "not active"},
      {"measurement": "cytotoxic effect (MTT cell viability)", "setting": "[2]", "value": "not active"},
      {"measurement": "cytotoxic effect (MTT cell viability)", "setting": "[3]", "value": "not active"},
      {"measurement": "cellular membrane toxicity (LDH release)", "setting": "PC3 cells [4]", "value": "Neither aurA nor aurB induced cellular membrane toxicity at any concentrations"},
      {"measurement": "apoptotic cell death", "setting": "LNCaP cells", "value": "very little effect"},
      {"measurement": "apoptotic cell death", "setting": "DU145 cells", "value": "very little effect"},
      {"measurement": "apoptotic cell death", "setting": "PC3 cells [5]", "value": "very little effect"},
      {"measurement": "apoptotic cell death", "setting": "[6]", "value": "very little effect"},
      {"measurement": "binding to ATP5C (pull-down of ~35 kDa protein, IB)", "setting": "[7]", "value": "did not"},
      {"measurement": "effect on mitochondrial membrane potential (JC-1)", "setting": "PC3 cells [8]", "value": "did not impact"},
      {"measurement": "water solubility", "setting": "[9]", "value": "highly water-soluble"}
    ]}
  ]
}
